Measured values published in patent publication US6288265A, “Phloroglucidic acid and derivatives as antibacterial agents” (National Science Council, priority 1999, dated 2001).
Converted amounts (≈) assume the structure as drawn. “Also recorded” adds a separate entry of the source. Read-outs that look alike come from different tables or passages of the source.

What was measured:
[1] = system: C. albicans; assay: Minimum inhibitory concentration, agar dilution, C. albicans; format: cell-based; conditions: Candida albicans, read-out: Minimum Inhibitory Concentration (MIC), C. albicans
Protocol: (§1) Determination of Minimum Inhibitory Concentrations. The screening experiments in vitro were carried out for antibacterial activities of the phloroglucide analogs II-VII, XII-XIV, bifunctional cephalosporins VIII and IX, as well as 7-(phloroglucidamido)cephalosporins X and XI. Cephalosporins XV and XVI were used as the reference compounds. The lowest concentrations of antibiotics needed for prevention of visible growth of microorganisms; reported as the average values of duplicate determinations. Minimum inhibitory concentrations (MIC) values obtained by use of an agar dilution method whereby organisms were deposited onto medicated agar plates by the replication device of Steers et al [Steers, F. et al. Antibiot. Chemother. 1959, 9, 307].

[2] = system: PS. aerureus 18S-H; assay: Minimum inhibitory concentration, agar dilution, Ps. 18S-H; format: cell-based, Pseudomonas aeruginosa 18S-H; conditions: Pseudomonas aeruginosa, 18SH, read-out: Minimum Inhibitory Concentration (MIC), PS. aerureus 18S-H
Protocol: as §1

[3] = system: S. aureus FDA 209P; assay: Minimum inhibitory concentration, agar dilution, S. aureus FDA 209P; format: cell-based, Staphylococcus aureus FDA 209P; conditions: for MIC: Staphylococcus aureus, FDA209P, agar dilution, average of duplicate determinations; for antibacterial activity in words, S. aureus FDA 209P: compared with corresponding phloroglucides
Protocol: as §1

[4] = system: Ps. aerureus 1101-75; assay: Minimum inhibitory concentration, agar dilution, Ps. 1101-75; format: cell-based, Pseudomonas aeruginosa
Protocol: as §1

[5] = system: pathogenic microorganisms; assay: Antibacterial activity in vitro (statements in words); format: cell-based
Protocol: as §1

[6] = system: S. aureus 95; assay: Minimum inhibitory concentration, agar dilution, S. aureus 95; format: cell-based, Staphylococcus aureus 95; conditions: for activity against β-lactamase producing microorganisms, in words: i.e., S. aureus 95
Protocol: as §1

[7] = target: T1, β-lactamase of S. aureus 95 (Staphylococcus aureus, UniProt P00807); assay: Minimum protective concentration against β-lactamase of S. aureus 95; format: biochemical; conditions: protection of chromogenic cephem indicator from hydrolysis within 40 min, average of duplicates
T1 construct: chromogenic cephalosporin (nitrocefin type) hydrolysis
T1 sequence (P00807 25-281): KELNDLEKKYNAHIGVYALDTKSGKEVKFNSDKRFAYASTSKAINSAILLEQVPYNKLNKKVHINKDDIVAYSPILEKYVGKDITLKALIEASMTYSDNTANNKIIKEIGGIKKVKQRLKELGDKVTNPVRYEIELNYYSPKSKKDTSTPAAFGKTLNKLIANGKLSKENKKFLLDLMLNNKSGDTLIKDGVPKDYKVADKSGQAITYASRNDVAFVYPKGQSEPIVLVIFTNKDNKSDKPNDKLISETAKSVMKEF
From the text: (§2) Determination of Minimum Protective Concentrations. The β-lactamase inhibitory properties of cephalosporin-phloroglucide esters VIII and IX as well as 7-(phloroglucidamido)cephalosporins X and XI were studied. Cephalosporins XV and XVI as well as clavulanic acid (XVII) were used in vitro as the reference compound. The average values of duplicate determinations and the ability of compounds to inhibit the hydrolysis of 3-[E-(2,4-dinitro)styryl]-(6R,7R)-7-(2-thienylacetamido)-3-cephem-4-carboxylic acid by β-lactamases from S. aureus 95 and Ps. aeruginosa 18S-H. Minimum protective concentrations (MPC) values were determined by the procedure of O'Callaghan ct al. [O'Callaghan C. H. ct al. Antimicrob. Agents Chemother. 1972, 1, 283] and are the lowest concentrations of β-lactams needed to protect the indicator from hydrolysis by β-lactamases under standard test conditions within 40 min. The hydrolysis of indicator was evidenced by the appearance of a distinct red color.

[8] = system: β-lactamases of S. aureus 95 and Ps. aeruginosa 18S-H; assay: Behaviour towards β-lactamases (statements in words); format: biochemical
From the text: as §2

[9] = system: β-lactamase of PS. aeruginosa 18S-H; assay: Minimum protective concentration against β-lactamase of Ps. aeruginosa 18S-H; format: biochemical; conditions: protection of chromogenic cephem indicator from hydrolysis within 40 min, average of duplicates
From the text: as §2

[10] = Stability in the absence of β-lactamases in phosphate buffer solution; format: physicochemical; conditions: 37° C., pH 6.5
[11] = agar dilution, average of duplicate determinations
[12] = Pseudomonas aeruginosa, 110175, agar dilution, average of duplicate determinations, read-out: Minimum Inhibitory Concentration (MIC), Ps. aerureus 1101-75
[13] = Staphylococcus aureus, 95, agar dilution, average of duplicates, β-lactamase-producing, methicillin resistant organism, read-out: Minimum Inhibitory Concentration (MIC), S. aureus 95

Compound	MIC [1, 11] [µg/mL]	MIC [2] [µg/mL]	MIC [3] [µg/mL]	MIC [4, 12] [µg/mL]	antibacterial activity in words [5]	MIC [6, 13] [µg/mL]	Minimum Protective Concentration (MPC), β-lactamase of S. aureus 95 [7] [µg/mL]	hydrolysis by / stability towards β-lactamases, in words [8]	antibacterial activity in words, S. aureus FDA 209P [3]	Minimum Protective Concentration (MPC), β-lactamase of PS. aeruginosa 18S-H [9] [µg/mL]	β-lactamase inhibitory property, in words [8]	MIC [1] [µg/mL]	MIC ([4]; Pseudomonas aeruginosa, 110175, read-out: Minimum Inhibitory Concentration (MIC), Ps. aerureus 1101-75) [µg/mL]	MIC ([6]; Staphylococcus aureus, 95, read-out: Minimum Inhibitory Concentration (MIC), S. aureus 95) [µg/mL]	activity against β-lactamase producing microorganisms, in words [6]	β-lactam ring destructed (time) [10] [h]
O=C(O)c1cccc(Cc2cc(Cl)cc(Cc3ccccc3O)c2O)c1O [II, 2-(3-Carboxy-2-hydroxybenzyl)-6-(2-hydroxybenzyl)-4-chlorophenol]	1.43 (≈ 3.72 µM)	0.1 (≈ 0.26 µM)	0.86 (≈ 2.23 µM)	0.02 (≈ 0.052 µM)	more potent antimicrobial activity than that of the model phloroglucide (XXI)	0.43 (≈ 1.12 µM)	–	–	–	–	–	–	–	–	–	–
O=C(O)c1cccc(C(=O)c2cc(Cl)cc(C(=O)c3ccccc3O)c2O)c1O [III, 2-(3-Carboxy-2-hydroxybenzoyl)-6-(2-hydroxybenzoyl)-4-chlorophenol]	3.7 (≈ 8.96 µM)	0.26 (≈ 0.63 µM)	3.67 (≈ 8.89 µM)	0.17 (≈ 0.412 µM)	its antimicrobial property decreased; also recorded: In comparison with dicarboxylic acid derivative (XV), mono-carboxylic acid (III) however exhibited greater potency; also recorded: lower efficacy than phenolic acid (II) and phenol (XII) against pathogenic microorganisms	0.98 (≈ 2.37 µM)	–	–	–	–	–	–	–	–	–	–
COC(=O)c1cccc(Cc2cc(Cl)cc(Cc3ccccc3O)c2O)c1O [IV]	117 (≈ 294 µM)	1.56 (≈ 3.91 µM)	2.98 (≈ 7.47 µM)	1.25 (≈ 3.13 µM)	lower efficacy than phloroglucides (II) and (III) as well as the bifunctional cephalosporins (VIII) and (IX)	4.65 (≈ 11.7 µM)	–	–	–	–	–	–	–	–	–	–
O=C(COc1ccccc1)N[C@@H]1C(=O)N2C(C(=O)O)=C(COC(=O)c3cccc(C(=O)c4cc(Cl)cc(C(=O)c5ccccc5O)c4O)c3O)CS[C@H]12 [IX, 3-{3-[5-Chloro-2-hydroxy-3-(2-hydroxybenzoyl)benzoyl]-2-hydroxy-benzoyloxymethyl}-7-phenoxyacetamido-3-cephem-4-carboxylic Acid]	6.47 (≈ 8.52 µM)	3.13 (≈ 4.12 µM)	0.9 (≈ 1.19 µM)	1.37 (≈ 1.8 µM)	–	2.1 (≈ 2.77 µM)	4.81	underwent hydrolysis to liberate their phloroglucidc components	greater antibacterial activity than the corresponding phloroglucides (II) and (III) against S. aureus FDA 209P	5.98	–	–	–	–	–	–
O=C(COc1ccccc1)N[C@@H]1C(=O)N2C(C(=O)O)=C(COC(=O)c3cccc(Cc4cc(Cl)cc(Cc5ccccc5O)c4O)c3O)CS[C@H]12 [VIII, 3-{3-[5-Chloro-2-hydroxy-3-(2-hydroxybenzyl)benzyl]-2-hydroxy-benzoyloxymethyl}-7-phenoxyacetamido-3-cephem-4-carboxylic Acid]	5.86 (≈ 8.01 µM)	1.24 (≈ 1.7 µM)	0.41 (≈ 0.561 µM)	0.98 (≈ 1.34 µM)	broadened spectrum of antibacterial activity in vitro; also recorded: less activity against other pathogenic microorganisms; also recorded: phloroglucide-like antibacterial activity	1.2 (≈ 1.64 µM)	7.08	underwent hydrolysis to liberate their phloroglucidc components	greater antibacterial activity than the corresponding phloroglucides (II) and (III) against S. aureus FDA 209P	6.74	–	–	–	–	–	–
CNC(=O)c1cccc(C(=O)c2cc(Cl)cc(C(=O)c3ccccc3O)c2O)c1O [VII]	120 (≈ 281 µM)	8.32 (≈ 19.5 µM)	18.1 (≈ 42.6 µM)	6.03 (≈ 14.2 µM)	lower efficacy than phloroglucides (II) and (III) as well as the bifunctional cephalosporins (VIII) and (IX)	17.8 (≈ 41.7 µM)	–	–	–	–	–	–	–	–	–	–
CNC(=O)c1cccc(Cc2cc(Cl)cc(Cc3ccccc3O)c2O)c1O [VI]	114 (≈ 287 µM)	4.7 (≈ 11.8 µM)	7.35 (≈ 18.5 µM)	3.28 (≈ 8.24 µM)	lower efficacy than phloroglucides (II) and (III) as well as the bifunctional cephalosporins (VIII) and (IX)	6.63 (≈ 16.7 µM)	–	–	–	–	–	–	–	–	–	–
COC(=O)c1cccc(C(=O)c2cc(Cl)cc(C(=O)c3ccccc3O)c2O)c1O [V]	125 (≈ 294 µM)	4.3 (≈ 10.1 µM)	14.7 (≈ 34.4 µM)	5.78 (≈ 13.5 µM)	lower efficacy than phloroglucides (II) and (III) as well as the bifunctional cephalosporins (VIII) and (IX)	15.3 (≈ 35.9 µM)	–	–	–	–	–	–	–	–	–	–
CC(=O)OCC1=C(C(=O)O)N2C(=O)[C@@H](NC(=O)c3cccc(Cc4cc(Cl)cc(Cc5ccccc5O)c4O)c3O)[C@H]2SC1 [X, 7-{3-[5-Chloro-2-hydroxy-3-(2-hydroxybenzyl)benzyl]-2-hydroxy-benzamido}cephalosporanic Acid]	28.3 (≈ 44.3 µM)	0.45 (≈ 0.704 µM)	0.35 (≈ 0.548 µM)	0.28 (≈ 0.438 µM)	notable antibacterial activity; also recorded: potent phloroglucide-like antibacterial activity	0.28 (≈ 0.438 µM)	95.20	stability towards β-lactamases	–	99.78	did not exhibit notable β-lactamase inhibitory property	–	–	–	–	–
CC(=O)OCC1=C(C(=O)O)N2C(=O)[C@@H](NC(=O)c3cccc(C(=O)c4cc(Cl)cc(C(=O)c5ccccc5O)c4O)c3O)[C@H]2SC1 [XI, 7-{3-[5-Chloro-2-hydroxy-3-(2-hydroxybenzoyl)benzoyl]-2-hydroxy-benzamido}cephalosporanic Acid]	14.2 (≈ 21.3 µM)	0.38 (≈ 0.57 µM)	0.78 (≈ 1.17 µM)	0.79 (≈ 1.18 µM)	notable antibacterial activity	0.45 (≈ 0.675 µM)	88.68	stability towards β-lactamases	–	93.45	did not exhibit notable β-lactamase inhibitory property	–	–	–	–	–
Oc1ccccc1Cc1cc(Cl)cc(Cc2ccccc2O)c1O [XII, reference compound]	2.06 (≈ 6.04 µM)	0.18 (≈ 0.528 µM)	1.2 (≈ 3.52 µM)	0.07 (≈ 0.205 µM)	–	0.58 (≈ 1.7 µM)	–	–	–	–	–	–	–	–	–	–
O=C(O)c1cccc(Cc2cc(Cl)cc(Cc3cccc(C(=O)O)c3O)c2O)c1O [XIII, reference compound]	16.5 (≈ 38.5 µM)	1.32 (≈ 3.08 µM)	3.25 (≈ 7.58 µM)	0.86 (≈ 2.01 µM)	–	4.15 (≈ 9.68 µM)	–	–	–	–	–	–	–	–	–	–
O=C(O)c1cccc(C(=O)c2cc(Cl)cc(C(=O)c3cccc(C(=O)O)c3O)c2O)c1O [XIV, reference compound]	19.1 (≈ 41.9 µM)	3.06 (≈ 6.7 µM)	18.2 (≈ 40 µM)	2.54 (≈ 5.56 µM)	–	22.2 (≈ 48.6 µM)	–	–	–	–	–	–	–	–	–	–
CC(=O)OCC1=C(C(=O)O)N2C(=O)[C@@H](NC(=O)COc3ccccc3)[C@H]2SC1 [XV, reference compound]	–	> 145	0.7 (≈ 1.72 µM)	–	–	–	1.35	susceptible to hydrolysis by β-lactamases	–	0.97	–	> 145	> 145	> 145	did not show significant activity	–
CO/N=C(\C(=O)N[C@@H]1C(=O)N2C(C(=O)O)=C(COC(C)=O)CS[C@H]12)c1csc(N)n1 [XVI, reference compound]	> 145	135 (≈ 296 µM)	1.7 (≈ 3.73 µM)	69.9 (≈ 153 µM)	–	40.6 (≈ 89.1 µM)	2.72	susceptible to hydrolysis by β-lactamases	–	1.03	–	–	–	–	did not show significant activity	–
O=C(O)[C@H]1/C(=C/CO)O[C@@H]2CC(=O)N21 [XVII, clavulanic acid, reference compound]	–	–	–	–	–	–	0.38	–	–	3.00	–	–	–	–	–	≤ 13
